The values below come from patent US8598124B2, “Peptides derived from HMG-CoA reductase and cosmetic and/or pharmaceutical composition containing same” (ISP Investments Inc., priority 2008, dated 2013).

Where no end group is shown, it is not given here.

Format in all cases: cell-based
The subject of experiment [1] is normal human dermal fibroblasts. Put plainly: Ultrastructural study of caveolae in human fibroblasts. Particulars: 0.5 ppm (1% of stock solution at 50 ppm), 48 hours. On the procedure: The goal of this study is to study at the ultrastructural level the caveolae in human dermal fibroblasts.
Protocol: Normal human dermal fibroblasts in culture are treated with a 1% stock solution at 50 ppm of peptide SEQ ID No. 4 for 48 hours (the medium in the presence of the active ingredient is changed every 24 hours).

Experiment [2] relates to HMG-CoA reductase. The experiment can be described thus: Expression of HMG-CoA reductase in normal human keratinocytes (immunofluorescence). Particulars: 0.5 ppm, 48 hours. On the procedure:
The goal of this study is to determine the influence of peptide SEQ ID No. 4 on the expression of HMG-CoA reductase in normal human keratinocytes.
Protocol: Normal human dermal keratinocytes in culture are treated with a 1% stock solution at 50 ppm of peptide SEQ ID No. 4 for 48 hours (the medium in the presence of the active ingredient is changed every 24 hours). The cells are then washed and fixed in cold methanol for 4 minutes at 4° C. The cells are incubated in the presence of a polyclonal rabbit antibody specific for HMG-CoA reductase (Millipore, Upstate), and then a secondary antibody coupled with a fluorescent dye. The cells are then examined by epifluorescence microscope (Nikon Eclipse E600 microscope).

Experiment [3] deals with normal human keratinocytes. Put plainly: Ultrastructural study of lamellar bodies in human keratinocytes (transmission electron microscopy). The settings on record: 48 hours. On the procedure: The goal of this study is to study in an ultrastructural manner, in transmission electron microscopy, keratinocytes treated by peptide SEQ ID No. 5 at 0.5 ppm.
Normal human keratinocytes in culture are treated with a 1% stock solution at 50 ppm of peptide SEQ ID No. 5 for 48 hours (the medium in the presence of the active ingredient is changed every 24 hours). The cells are washed in PBS, and then are fixed by Karnosky hypertonic fixation (4% paraformaldehyde, 5% glutaraldehyde in a 0.08M phosphate buffer) 1 hour at ambient temperature and then 24 hours at 4° C. The cells are detached from the support by scraping and centrifuged 5 minutes at 1000 rpm. The supernatant is eliminated and a 1M sodium cacodylate buffer is deposited on the residue. The cells are mixed with 2% agar and then postfixed by osmium tetraoxide for 1 hour. The specimens are then dehydrated by successive passages in a series of alcohol (from 50 to 100%). The cells are then coated in a resin. The polymerization is carried out for approximately 12 hours at 60° C. Semi-thin sections of 0.5 μm are made with an ultramicrotome. The sections are deposited on a heat bonded slide and then colored with toluidine blue. The slides are then dehydrated again and mounted in a suitable medium. […]

Experiment [4] concerns normal human keratinocytes. Put plainly: Differentiation study of human keratinocytes (pankeratin immunofluorescence). Particulars: 0.5 ppm, 48 hours, anti-cytopankeratin antibody, epifluorescence microscope. On the procedure:
The goal of this study is to determine the influence of peptide SEQ ID No. 5 on epidermal differentiation.
Protocol: Normal human keratinocytes in culture are treated with a 1% stock solution at 50 ppm of peptide SEQ ID No. 4 for 48 hours (the medium in the presence of the active ingredient is changed every 24 hours). The cells are then washed and fixed with cold methanol for 4 minutes at 4° C.

The subject of experiment [5] is normal human keratinocytes. Put plainly: Protective effect on skin cells subjected to UVB radiation (MTT cellular viability). The settings on record: 0.5 ppm, 24 hours before and 24 hours after UVB 50 mJ/cm^2, versus untreated irradiated control. On the procedure: The goal of this study is to determine the protective effect of peptide SEQ ID No. 5 with relation to normal human keratinocytes subjected to stress by UVB radiation. To do this, cellular viability tests were conducted by the MTT technique.
Protocol: The normal human keratinocytes are treated with a 1% solution, a solution at 50 ppm of peptide SEQ ID No. 5, for 24 hours, irradiated by UVB (50 mJ/cm^2) and then cultivated again 24 hours in the presence of the same concentration of peptide SEQ ID No. 5. Untreated and irradiated controls are carried out under the same conditions. At the end of the experiment, the cells are incubated in a solution containing 0.1 mg/ml of MTT (3-[4,5-dimethylthiazol-2-yl]-2,5-diphenyltetrazolium bromide). This compound is absorbed by the living cells and then metabolized by mitochondrial enzymes into a blue violet compound, formazan, that will be assayed by spectrophotometry at 540 nm. The optical density (O.D.) Is then directly proportional to the mitochondrial enzymatic activity as well as to the number of living cells.

The subject of experiment [6] is HMG-CoA reductase. Put plainly: Expression of HMG-CoA reductase in skin biopsies (immunolabelling). The settings on record: 0.5 ppm applied topically on human skin samples in culture, 24 hours or 48 hours. On the procedure: The goal of this study is to determine the influence of peptide SEQ ID No. 5 on the expression of HMG-CoA reductase.
Protocol: Samples of human skin are placed in culture at the air/liquid interface. A 1% stock solution at 50 ppm of peptide SEQ ID No. 5 is applied topically and then the samples are incubated for 24 hours or 48 hours.
These skin samples are then fixed with formaldehyde and then enclosed in paraffin. Sections of 2 to 3 μm are then made. Immunolabelling is carried out after unmasking the specific sites by microwave treatment and then incubation in trypsin. Immunolabelling is carried out by using a polyclonal rabbit antibody specific for HMG-CoA reductase (Millipore, Upstate), and then a secondary antibody, coupled with a fluorescent dye. The skin sections are then examined by epifluorescence microscope (Nikon Eclipse E600 microscope).

Regarding “Arg-Gly-Lys-Ser (RGKS) [Peptide SEQ ID No. 4]”, the “caveolae in treated cells in comparison with untreated control cells” value in experiment [1] is given as “significant increase in caveolae”. Besides, the “HMG-CoA reductase cytoplasmic immunofluorescence in treated cells” value in the experiment with HMG-CoA reductase [2] is “more intense cytoplasmic fluorescence”.
Consider “Arg-Gly-Lys-Ser-NH2 (RGKS-NH2) [Peptide SEQ ID No. 5]”, for which the “Golgi complex development / production of lamellar bodies (Odland bodies) versus control cells” value in experiment [3] (0.5 ppm (1% of stock solution at 50 ppm), transmission electron microscopy) is “Golgi complex is substantially more developed than in the control cells”. Besides, the “lipid synthesis in normal human keratinocytes” value in experiment [3] (0.5 ppm, inferred from ultrastructural study) is listed as “capable of inducing an increase in lipid synthesis”. In experiment [4], the expression of pankeratins entry was “increases the expression of pankeratins”. Also, the “increase of cellular viability after UVB irradiation (MTT)” value in experiment [5] worked out at 16%. Moreover, in the experiment with HMG-CoA reductase [6], the “HMG-CoA reductase immunofluorescence in the upper layers of the epidermis, relative to untreated control” value was “stronger fluorescence”.
